{
  "source": "patent US9587266B2",
  "about": "“Mutant luciferases” (University of Massachusetts, priority 2011, dated 2017)",
  "key": {"[1]": {"molecular_target": "T1, T251S mutant luciferase (Photinus pyralis, UniProt P08659, T251S)", "T1 construct": "The full firefly (Photinus pyralis) luciferase gene was PCR amplified from pGL3 (Promega); GST (N, cleaved yes); made in house; host or cells: E. coli JM109", "T1 sequence (P08659 whole entry T251S)": "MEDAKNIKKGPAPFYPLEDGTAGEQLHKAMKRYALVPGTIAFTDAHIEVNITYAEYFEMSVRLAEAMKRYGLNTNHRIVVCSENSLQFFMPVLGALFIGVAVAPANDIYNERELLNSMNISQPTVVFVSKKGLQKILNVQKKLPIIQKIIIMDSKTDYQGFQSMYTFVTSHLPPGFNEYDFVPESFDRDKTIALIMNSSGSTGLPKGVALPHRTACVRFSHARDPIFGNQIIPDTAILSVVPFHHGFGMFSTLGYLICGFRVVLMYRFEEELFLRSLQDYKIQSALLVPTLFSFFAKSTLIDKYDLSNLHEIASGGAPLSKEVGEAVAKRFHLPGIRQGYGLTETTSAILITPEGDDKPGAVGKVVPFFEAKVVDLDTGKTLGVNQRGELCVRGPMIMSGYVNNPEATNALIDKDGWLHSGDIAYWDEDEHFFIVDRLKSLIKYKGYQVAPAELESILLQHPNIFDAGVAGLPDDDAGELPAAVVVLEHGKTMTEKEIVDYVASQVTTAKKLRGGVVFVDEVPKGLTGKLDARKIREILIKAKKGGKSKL", "experiment": "Titration assay with purified protein", "format": "biochemical", "experimental": "(§1) The PCR product was cloned into the BamH1 and NotI sites of pGEX6P-1 for bacterial expression. Mutant proteins were created using the Quickchange site-directed mutagenesis kit (Stratagene). Saturating mutagenesis was performed using the used the degenerate codon NNK at sites predicted to impact or alter substrate biding including F247, T251, L286, S347, R337, R218, Q338, Y340, A313, and I351 using the degenerate codon NNK.\n(§2) Luminescence assays in 96-well plates were initiated by adding 30 μL 2× substrate in 20 mM Tris pH 7.6, 0.1 mM EDTA, 8 mM MgSO4, 4 mM ATP, and 1 mM TCEP to 30 μL of 20 nM purified luciferase in 20 mM Tris pH 7.6, 0.1 mM EDTA, 1 mM TCEP and 0.4 mg/mL BSA."}, "[2]": {"molecular_target": "T2, L286M mutant luciferase (Photinus pyralis, UniProt P08659, L286M)", "T2 construct": "The full firefly (Photinus pyralis) luciferase gene was PCR amplified from pGL3 (Promega); GST (N, cleaved yes); made in house; host or cells: E. coli JM109", "T2 sequence (P08659 whole entry L286M)": "as the sequence (P08659 whole entry T251S) above, with S251T, L286M counted along it", "experiment": "Titration assay with purified protein", "format": "biochemical", "experimental": "as §1, §2"}, "[3]": {"molecular_target": "T3, T251S L286M luciferase (Photinus pyralis, UniProt P08659, L286M/T251S)", "T3 construct": "The full firefly (Photinus pyralis) luciferase gene was PCR amplified from pGL3 (Promega); GST (N, cleaved yes); made in house; host or cells: E. coli JM109", "T3 sequence (P08659 whole entry T251S/L286M)": "as the sequence (P08659 whole entry T251S) above, with L286M counted along it", "experiment": "Bioluminescence emission scan", "format": "biochemical", "experimental": "(§3) Purified mutant luciferases were used in bioluminescence emission and burst kinetics scans.\n(§4) Luciferase was rapidly injected into a cuvette containing substrate, and the emission from 400-800 nm was recorded in a SPEX FluoroMax-3 fluorimeter with closed excitation slits."}, "[4]": {"molecular_target": "T4, T251S luciferase (Photinus pyralis, UniProt P08659, T251S)", "T4 construct": "The full firefly (Photinus pyralis) luciferase gene was PCR amplified from pGL3 (Promega); GST (N, cleaved yes); made in house; host or cells: E. coli JM109", "T4 sequence (P08659 whole entry T251S)": "as the sequence (P08659 whole entry T251S) above", "experiment": "Bioluminescence emission scan", "format": "biochemical", "experimental": "as §3, §4"}, "[5]": {"molecular_target": "T5, I351A luciferase (Photinus pyralis, UniProt P08659, I351A)", "T5 construct": "The full firefly (Photinus pyralis) luciferase gene was PCR amplified from pGL3 (Promega); GST (N, cleaved yes); made in house; host or cells: E. coli JM109", "T5 sequence (P08659 whole entry I351A)": "as the sequence (P08659 whole entry T251S) above, with S251T, I351A counted along it", "experiment": "Bioluminescence emission scan", "format": "biochemical", "experimental": "as §3, §4"}, "[6]": {"molecular_target": "T6, S347A luciferase (Photinus pyralis, UniProt P08659, S347A)", "T6 construct": "The full firefly (Photinus pyralis) luciferase gene was PCR amplified from pGL3 (Promega); GST (N, cleaved yes); made in house; host or cells: E. coli JM109", "T6 sequence (P08659 whole entry S347A)": "as the sequence (P08659 whole entry T251S) above, with S251T, S347A counted along it", "experiment": "Bioluminescence emission scan", "format": "biochemical", "experimental": "as §3, §4"}, "[7]": {"molecular_target": "T7, L286Y luciferase (Photinus pyralis, UniProt P08659, L286Y)", "T7 construct": "The full firefly (Photinus pyralis) luciferase gene was PCR amplified from pGL3 (Promega); GST (N, cleaved yes); made in house; host or cells: E. coli JM109", "T7 sequence (P08659 whole entry L286Y)": "as the sequence (P08659 whole entry T251S) above, with S251T, L286Y counted along it", "experiment": "Bioluminescence emission scan", "format": "biochemical", "experimental": "as §3, §4"}, "[8]": {"molecular_target": "T8, L286M luciferase (Photinus pyralis, UniProt P08659, L286M)", "T8 construct": "The full firefly (Photinus pyralis) luciferase gene was PCR amplified from pGL3 (Promega); GST (N, cleaved yes); made in house; host or cells: E. coli JM109", "T8 sequence (P08659 whole entry L286M)": "as the sequence (P08659 whole entry T251S) above, with S251T, L286M counted along it", "experiment": "Bioluminescence emission scan", "format": "biochemical", "experimental": "as §3, §4"}, "[9]": {"molecular_target": "T9, L342A luciferase (Photinus pyralis, UniProt P08659, L342A)", "T9 construct": "The full firefly (Photinus pyralis) luciferase gene was PCR amplified from pGL3 (Promega); GST (N, cleaved yes); made in house; host or cells: E. coli JM109", "T9 sequence (P08659 whole entry L342A)": "as the sequence (P08659 whole entry T251S) above, with S251T, L342A counted along it", "experiment": "Bioluminescence emission scan", "format": "biochemical", "experimental": "as §3, §4"}, "[10]": {"molecular_target": "T10, F247R luciferase (Photinus pyralis, UniProt P08659, F247R)", "T10 construct": "The full firefly (Photinus pyralis) luciferase gene was PCR amplified from pGL3 (Promega); GST (N, cleaved yes); made in house; host or cells: E. coli JM109", "T10 sequence (P08659 whole entry F247R)": "as the sequence (P08659 whole entry T251S) above, with F247R, S251T counted along it", "experiment": "Bioluminescence emission scan", "format": "biochemical", "experimental": "as §3, §4"}, "[11]": {"molecular_target": "T11, T251S mutant luciferase in live CHO cells (Photinus pyralis, UniProt P08659, T251S)", "T11 construct": "The full firefly (Photinus pyralis) luciferase gene was PCR amplified from pGL3 (Promega); expressed in transfected cells; host or cells: CHO cells", "T11 sequence (P08659 whole entry T251S)": "as the sequence (P08659 whole entry T251S) above", "experiment": "Intact cell assay, transfected CHO cells", "format": "cell-based", "experimental": "(§5) The mutants were cloned into the BamHI-Not I site of pcDNA 3.1 and transfected into CHO cells for live and lysed cell experiments. CHO-cell transfections were performed using Lipofectamine 2000 in 96-well white tissue culture treated plates (Costar) for intact cell assays, or 6-well plates for lysed cell assays. For intact cells, 0.075 μg DNA/well was transfected. For lysed cells, 2.25 μg DNA/well was transfected and one full 6-well plate was transfected for each mutant. Assays were performed in triplicate 24 hours post-transfection.\n(§6) Transfected CHO cells were washed with HBSS and overlaid with 60 μL substrate in HBSS."}, "[12]": {"molecular_target": "T12, R218K mutant luciferase in live CHO cells (Photinus pyralis, UniProt P08659, R218K)", "T12 construct": "The full firefly (Photinus pyralis) luciferase gene was PCR amplified from pGL3 (Promega); expressed in transfected cells; host or cells: CHO cells", "T12 sequence (P08659 whole entry R218K)": "as the sequence (P08659 whole entry T251S) above, with R218K, S251T counted along it", "experiment": "Intact cell assay, transfected CHO cells", "format": "cell-based", "experimental": "as §5, §6"}, "[13]": {"molecular_target": "T13, S347A mutant luciferase (Photinus pyralis, UniProt P08659, S347A)", "T13 construct": "The full firefly (Photinus pyralis) luciferase gene was PCR amplified from pGL3 (Promega); GST (N, cleaved yes); made in house; host or cells: E. coli JM109", "T13 sequence (P08659 whole entry S347A)": "as the sequence (P08659 whole entry T251S) above, with S251T, S347A counted along it", "format": "biochemical", "conditions": "purified protein", "experimental": "as §1, §2"}, "[14]": {"molecular_target": "T14, R218K mutant luciferase (Photinus pyralis, UniProt P08659, R218K)", "T14 construct": "The full firefly (Photinus pyralis) luciferase gene was PCR amplified from pGL3 (Promega); GST (N, cleaved yes); made in house; host or cells: E. coli JM109", "T14 sequence (P08659 whole entry R218K)": "as the sequence (P08659 whole entry T251S) above, with R218K, S251T counted along it", "format": "biochemical", "experimental": "as §1, §2"}, "[15]": {"molecular_target": "T15, WT luciferase (Photinus pyralis, UniProt P08659)", "T15 construct": "The full firefly (Photinus pyralis) luciferase gene was PCR amplified from pGL3 (Promega); GST (N, cleaved yes); made in house; host or cells: E. coli JM109", "experiment": "Titration assay with purified protein", "format": "biochemical", "experimental": "as §1, with “NNK. The point mutants S347A, L286A, A348G, E311A, I351A, A313G, R337A, H245A and L342A were made independently.” for “NNK.”\nas §2, with “BSA. Titration assays were performed 3 minutes post-substrate addition in a Turner Veritas luminometer with final substrate concentrations ranging from 0.122-250 μM or 0.244-500 μM.” for “BSA.”"}, "[16]": {"molecular_target": "T16, S347A/L286M double mutant luciferase (Photinus pyralis, UniProt P08659, L286M/S347A)", "T16 construct": "The full firefly (Photinus pyralis) luciferase gene was PCR amplified from pGL3 (Promega); GST (N, cleaved yes); made in house; host or cells: E. coli JM109", "T16 sequence (P08659 whole entry L286M/S347A)": "as the sequence (P08659 whole entry T251S) above, with S251T, L286M, S347A counted along it", "experiment": "Titration assay with purified protein", "format": "biochemical", "conditions": "sustained light emission", "experimental": "as §1, with “NNK. The point mutants S347A, L286A, A348G, E311A, I351A, A313G, R337A, H245A and L342A were made independently.” for “NNK.”\nas §2, with “BSA. Titration assays were performed 3 minutes post-substrate addition in a Turner Veritas luminometer with final substrate concentrations ranging from 0.122-250 μM or 0.244-500 μM.” for “BSA.”"}, "[17]": {"molecular_target": "T15, WT luciferase", "format": "biochemical", "experimental": "(§7) Purified mutant luciferases were used in bioluminescence emission and burst kinetics scans. Each purified protein in 20 mM Tris pH 7.6, 0.1 mM EDTA, 1 mM TCEP and 0.4 mg/mL BSA was added to 2× substrate in 20 mM Tris pH 7.6, 0.1 mM EDTA, 8 mM MgSO4, 4 mM ATP, and 1 mM TCEP in a cuvette.\nas §4"}, "[18]": {"molecular_target": "T17, R218K + L342A luciferase (Photinus pyralis, UniProt P08659, L342A/R218K)", "T17 construct": "The full firefly (Photinus pyralis) luciferase gene was PCR amplified from pGL3 (Promega); GST (N, cleaved yes); made in house; host or cells: E. coli JM109", "T17 sequence (P08659 whole entry R218K/L342A)": "as the sequence (P08659 whole entry T251S) above, with R218K, S251T, L342A counted along it", "format": "biochemical", "experimental": "as §7, §4"}, "[19]": {"conditions": "3 minutes post-substrate addition, read-out: Apparent Km"}},
  "note": "Several values for one entry are separate records, joined by “and”; a condition that tells them apart may be missing. Equal entries are not always repeated.",
  "data": [
    {"smiles": "O=C(O)[C@H]1CSC(c2nc3cc4c(cc3s2)NCC4)=N1", "note": "[CycLuc1]", "values": [
      {"measurement": "Apparent Vmax", "setting": "[1]", "result": "90 ± 0.9 ×10^−5 cps"},
      {"measurement": "Km", "setting": "[1]; [19]", "result": "1830 ± 90", "unit": "nM"},
      {"measurement": "Apparent Vmax", "setting": "[2]", "result": "60 ± 0.7 ×10^−5 cps"},
      {"measurement": "Km", "setting": "[2]; [19]", "result": "460 ± 30", "unit": "nM"},
      {"measurement": "Wavelength at Max. Emission", "setting": "[3]", "result": 601, "unit": "nm"},
      {"measurement": "Wavelength at Max. Emission", "setting": "[4]", "result": 602, "unit": "nm"},
      {"measurement": "Wavelength at Max. Emission", "setting": "[5]", "result": 604, "unit": "nm"},
      {"measurement": "Wavelength at Max. Emission", "setting": "[6]", "result": 597, "unit": "nm"},
      {"measurement": "Wavelength at Max. Emission", "setting": "[7]", "result": 604, "unit": "nm"},
      {"measurement": "Wavelength at Max. Emission", "setting": "[8]", "result": 591, "unit": "nm"},
      {"measurement": "Maximum Emission Wavelength of Selected Substrate", "setting": "[9]", "result": 597, "unit": "nm"},
      {"measurement": "Wavelength at Max. Emission", "setting": "[10]", "result": 609, "unit": "nm"},
      {"measurement": "substrate concentrations at which light output was superior to D-luciferin", "setting": "[11]", "result": "< 30", "unit": "µM"},
      {"measurement": "substrate concentrations at which light output was superior to D-luciferin", "setting": "[12]", "result": "< 30", "unit": "µM"},
      {"measurement": "Apparent Vmax", "setting": "[13]", "result": "135 ± 0.8 ×10^−5 cps"},
      {"measurement": "Km", "setting": "[13]; [19]", "result": "2680 ± 70", "unit": "nM"},
      {"measurement": "Apparent Vmax", "setting": "[14]; R218K luciferase, purified protein", "result": "134 ± 1.9 ×10^−5 cps"},
      {"measurement": "Km", "setting": "[14]; R218K luciferase, purified protein, 3 minutes post-substrate addition, read-out: Apparent Km", "result": "1800 nM and 1790 nM"},
      {"measurement": "maximal sustained light emission as % of that of D-luciferin with WT luciferase", "setting": "[14]; R218K mutant", "result": 12.5, "unit": "%"},
      {"measurement": "improvement in the maximal sustained emission", "setting": "[14]; R218K mutant relative to wild-type luciferase", "result": 14, "unit": "fold"},
      {"measurement": "Apparent Vmax", "setting": "[15]", "result": "9.7 ± 0.1 ×10^−5 cps"},
      {"measurement": "Km", "setting": "[15]; [19]", "result": "100 ± 10", "unit": "nM"},
      {"measurement": "Vmax higher than wt", "setting": "[16]", "result": 20, "unit": "fold"},
      {"measurement": "Wavelength at Max. Emission", "setting": "[17]; Table 2", "result": 601, "unit": "nm"},
      {"measurement": "Maximum Emission Wavelength of Selected Substrate", "setting": "[17]; Table 3", "result": 601, "unit": "nm"},
      {"measurement": "Maximum Emission Wavelength of Selected Substrate", "setting": "[18]", "result": 604, "unit": "nm"}
    ]}
  ]
}
